The structures appear in SMILES notation.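 Step 1: Grow cells in 96-well plates. Step 2: Expose to compound for 48 hours at 5 concentrations. Step 3: Interpolate endpoints linearly; if unreached, use highest concentration. GI50 = concentration required for 50% inhibition of growth.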 Activity calls are given as the source filed them. Rule as the data show it: active = GI50 up to about 1.1 µM and inactive = higher.

Here are results for 12 molecules from ChEMBL document CHEMBL1201862, “PubChem BioAssay data set” (2004).

Among the test systems are A498; A549; HCT-15; IGROV-1; KM-20L2; M14; OVCAR-3; RPMI-8226; SF-268; SF-539; SK-MEL-28; SNB-75; TK-10; UACC-257; UACC-62; UO-31; HL-60; SR; Hs-578T; MCF7.
Holding throughout (assay): growth of human tumour cells (NCI), 48 h

Take `COc1ccccc1/C=C(\NC(=O)c1ccccc1)c1nc2ccc(Cl)cc2[nH]1`: the GI50 with A498 was 25.4 µM (inactive); in the assay on A549, 19.6 µM (inactive); with HCT-15 it was 30.3 µM; in the assay on IGROV-1, 26.9 µM (inactive); with KM-20L2, 48.8 µM (inactive); in the assay on M14 it was 34.9 µM (inactive). Further, the GI50 is 18.5 µM (inactive) in the assay on OVCAR-3; 9.64 µM (inactive) in the assay on RPMI-8226; 30.3 µM (inactive) in the assay on SF-268; 56.2 µM (inactive) in the assay with SF-539; 27.1 µM (inactive) in the assay on SK-MEL-28; 22.4 µM (inactive) with SNB-75. The GI50 in the assay on TK-10 was 29.2 µM (inactive); with UACC-257 it was 32.7 µM (inactive); with UACC-62, 17.5 µM (inactive); in the assay with UO-31, 18 µM (inactive).

On to `CC1=CCN(c2ccccn2)OC1c1ccccc1` (stereo not given), for which the GI50 in the assay with A549 was > 100 µM (inactive); in the assay on HCT-15, above 100 µM; in the assay with HL-60, 66.8 µM (inactive); with IGROV-1, > 100 µM (inactive); in the assay with KM-20L2, > 100 µM (inactive); with M14 it was > 100 µM (inactive). In addition, the GI50 with OVCAR-3 was > 100 µM (inactive); with RPMI-8226 it was 66.8 µM (inactive); with SF-268, > 100 µM (inactive); in the assay on SF-539, > 100 µM (inactive); in the assay on SK-MEL-28, > 100 µM (inactive); in the assay with SNB-75, > 100 µM (inactive). The GI50 in the assay with SR was 59.3 µM (inactive); with UACC-257 it was > 100 µM (inactive); in the assay on UACC-62, > 100 µM (inactive); in the assay on UO-31, 59.8 µM (inactive).

Regarding `CCOc1ccccc1NC(=O)C(=O)C(C(=O)c1ccc2ccccc2c1)C1OC(=O)c2ccccc21` (stereo not given), the GI50 in the assay on A498 was 14.3 µM (inactive); in the assay on A549 it was 21.4 µM (inactive); in the assay with HCT-15 it was 14.2 µM; with HL-60, 10 µM (inactive); in the assay on IGROV-1 it was 13 µM (inactive); with KM-20L2 it was 28.3 µM (inactive). The GI50 in the assay on M14 is 15.9 µM (inactive); in the assay with OVCAR-3 it was 12.7 µM (inactive); in the assay with RPMI-8226 it was 6.08 µM (inactive); with SF-268, 5.86 µM (inactive); in the assay on SF-539, 7.08 µM (inactive); with SK-MEL-28, 10.4 µM (inactive). Further, the GI50 in the assay on SNB-75 was 8.77 µM (inactive); in the assay with TK-10 it was 24.4 µM (inactive); with UACC-257 it was 13.7 µM (inactive); with UACC-62, 8.77 µM (inactive); in the assay on UO-31 it was 12.7 µM (inactive).

As to `CCCCCCCCCCCCCC(=O)OCC1OC(OC)C(NC(=O)N(CCCl)N=O)C(O)C1O` (stereo not given), the GI50 is 27.1 µM (inactive) in the assay on A498; 15.6 µM (inactive) in the assay with A549; 34.8 µM with HCT-15; 29.6 µM (inactive) in the assay on IGROV-1; 21 µM (inactive) with KM-20L2; 17.2 µM (inactive) in the assay with M14. The GI50 in the assay on OVCAR-3 was 24.9 µM (inactive); in the assay on RPMI-8226, 11.4 µM (inactive); in the assay with SF-268, 7.96 µM (inactive); with SF-539, 3.56 µM (inactive); with SK-MEL-28, 25.3 µM (inactive); in the assay with SNB-75, 8.89 µM (inactive). In addition, the GI50 with SR is 3.71 µM (inactive); in the assay with TK-10, 37.9 µM (inactive); in the assay with UACC-257, 14.2 µM (inactive); in the assay on UACC-62, 1.97 µM (inactive); with UO-31, 22.6 µM (inactive).

For `O=C(Nc1nnc(S)[nH]1)C(=O)C1C(=O)Nc2ccccc2[S+]1[O-]` (stereo not given), the GI50 is > 100 µM (inactive) in the assay on A549; above 100 µM in the assay with HCT-15; > 100 µM (inactive) in the assay with HL-60; > 100 µM (inactive) in the assay on IGROV-1; > 100 µM (inactive) with KM-20L2; > 100 µM (inactive) with M14. Moreover, the GI50 with OVCAR-3, in the assay with SF-268, in the assay on SF-539, in the assay with SK-MEL-28, with SNB-75 and with SR was > 100 µM (inactive) each time. Also, the GI50 with TK-10, with UACC-257, in the assay with UACC-62 and with UO-31 was > 100 µM (inactive) throughout.

For `O=C1/C(=C\c2ccccc2)c2ccccc2N1/N=C\c1ccccc1`, the GI50 with A498 is > 100 µM (inactive); in the assay on A549 it was 76.2 µM (inactive); with HCT-15, 43.9 µM; with IGROV-1, > 100 µM (inactive); in the assay with KM-20L2 it was > 100 µM (inactive); in the assay on M14 it was > 100 µM (inactive). In addition, the GI50 is 91.8 µM (inactive) in the assay with OVCAR-3; 57.3 µM (inactive) with RPMI-8226; > 100 µM (inactive) in the assay with SF-268; > 100 µM (inactive) with SF-539; > 100 µM (inactive) in the assay on SK-MEL-28; 29 µM (inactive) with SNB-75. Moreover, the GI50 with TK-10 was > 100 µM (inactive); in the assay with UACC-257, > 100 µM (inactive); in the assay with UACC-62, 90.4 µM (inactive); in the assay on UO-31 it was > 100 µM (inactive).

Consider `OC(C#Cc1ccccc1)(c1ccccc1)c1ccccc1`, for which the GI50 is 27.1 µM (inactive) in the assay on A498; 21.2 µM (inactive) in the assay on A549; 39.5 µM in the assay on HCT-15; 38.6 µM (inactive) in the assay on HL-60; 54.8 µM (inactive) in the assay with Hs-578T; 43.7 µM (inactive) in the assay with IGROV-1. The GI50 is > 100 µM (inactive) in the assay on M14; 24 µM (inactive) in the assay with MCF7; 26.7 µM (inactive) in the assay with OVCAR-3; 16.4 µM (inactive) with RPMI-8226; 21.4 µM (inactive) in the assay on SF-268; 77.1 µM (inactive) with SF-539. The GI50 was 51.1 µM (inactive) with SK-MEL-28; 55.3 µM (inactive) with SNB-75; 37.4 µM (inactive) with SR; 31 µM (inactive) in the assay with TK-10; 24.5 µM (inactive) in the assay on UACC-257; 35.4 µM (inactive) in the assay on UACC-62. For the same molecule, the GI50 in the assay with UO-31 was 40.8 µM (inactive).

Take `COc1ccc(OC)c(CSc2ccc(OC)c(OC)c2)c1`: the GI50 with A498 was 38.8 µM (inactive); with A549, > 79.4 µM (inactive); in the assay with HCT-15, above 73.8 µM; in the assay on HL-60, > 50.5 µM (inactive); in the assay on Hs-578T, > 100 µM (inactive); in the assay with IGROV-1 it was 99.1 µM (inactive). For the same molecule, the GI50 is > 100 µM (inactive) with M14; > 100 µM (inactive) in the assay on MCF7; > 63.5 µM (inactive) in the assay on OVCAR-3; > 84.7 µM (inactive) in the assay with RPMI-8226; > 100 µM (inactive) in the assay with SF-268; > 100 µM (inactive) with SF-539. Besides, the GI50 is > 100 µM (inactive) in the assay on SK-MEL-28; 57.1 µM (inactive) in the assay on SNB-75; > 100 µM (inactive) in the assay with SR; > 100 µM (inactive) in the assay on TK-10; > 83.4 µM (inactive) with UACC-257; > 68.5 µM (inactive) in the assay with UACC-62. In addition, in the assay on UO-31, the GI50 was 55.3 µM (inactive).

Take `N=C1SCCS1`: the GI50 was > 100 µM (inactive) with A549; above 100 µM in the assay with HCT-15; > 100 µM (inactive) with HL-60; > 100 µM (inactive) in the assay on IGROV-1; > 100 µM (inactive) with KM-20L2; > 100 µM (inactive) with M14. In addition, the GI50 in the assay with OVCAR-3 is > 100 µM (inactive); in the assay on RPMI-8226, > 100 µM (inactive); with SF-268, > 100 µM (inactive); in the assay with SF-539, > 100 µM (inactive); in the assay on SK-MEL-28, > 100 µM (inactive); with SNB-75 it was 36.2 µM (inactive). Also, the GI50 in the assay with TK-10, in the assay on UACC-257, with UACC-62 and with UO-31 was > 100 µM (inactive) each time.

Regarding `CCCCCCCCCCCCCCNC(=O)CCC(NC(=O)c1ccc(N(C)Cc2cnc3nc(N)nc(N)c3n2)cc1)C(=O)NCCCCCCCCCCCCCC` (stereo not given), the GI50 was 14.5 µM (inactive) in the assay on A498; 5.45 µM (inactive) in the assay with A549; 2.52 µM in the assay on HCT-15; 0.355 µM (active) in the assay on HL-60; 8.39 µM (inactive) in the assay on Hs-578T; 7.14 µM (inactive) with IGROV-1. In addition, the GI50 with M14 was 0.441 µM (active); with MCF7 it was 4.48 µM (inactive); in the assay with OVCAR-3, 13.4 µM (inactive); in the assay on RPMI-8226 it was 3.07 µM (inactive); in the assay with SF-268, 2.49 µM (inactive); with SF-539, 0.908 µM (active). Moreover, the GI50 was 13.8 µM (inactive) in the assay on SK-MEL-28; 14.3 µM (inactive) in the assay on SNB-75; 0.139 µM (active) with SR; > 39.1 µM (inactive) with TK-10; 10.7 µM (inactive) in the assay on UACC-257; 2.63 µM (inactive) in the assay with UACC-62. Moreover, the GI50 in the assay on UO-31 is 13.8 µM (inactive).

On to `CC1(C)COC(C23C4C5C2C2C3C4C52I)=N1` (stereo not given), for which the GI50 with A498 was > 100 µM (inactive); with A549 it was > 100 µM (inactive); in the assay with HCT-15, above 100 µM; in the assay on IGROV-1, > 100 µM (inactive); in the assay on KM-20L2, > 100 µM (inactive); with M14, > 100 µM (inactive). Also, the GI50 with OVCAR-3, with RPMI-8226, with SF-268, with SF-539, in the assay on SK-MEL-28 and with TK-10 was > 100 µM (inactive) in each case. The GI50 in the assay on UACC-257, in the assay on UACC-62 and in the assay on UO-31 was > 100 µM (inactive) each time.

On to `COc1cc2c(c(OC)c1OC)-c1ccc(SC)c(=O)cc1[C@@H](NCc1cccc([N+](=O)[O-])c1)CC2`, for which the GI50 with A549, in the assay with HL-60, in the assay on IGROV-1, in the assay on KM-20L2, in the assay with M14 and in the assay with OVCAR-3 was < 0.01 µM (active) throughout. In addition, the GI50 was < 0.01 µM (active) in the assay on SF-268; < 0.01 µM (active) with SF-539; 11.1 µM (inactive) in the assay on SNB-75; > 100 µM (inactive) with SR; < 0.01 µM (active) with TK-10; < 0.01 µM (active) with UACC-257. For the same molecule, the GI50 in the assay on UACC-62 was < 0.01 µM (active); in the assay with UO-31, 0.0366 µM (active).
